Measured values reported in patent publication US20010053797A1 (priority 1998, published 2001).
Entries after “also recorded” stand apart in the source; their conditions may differ.

Columns and labels:
[1] = system: murine cortical cell cultures (neurons), NMDA receptor; assay: NMDA neurotoxicity in murine cortical cell cultures, medium LDH; type: cell-based, Swiss Webster mice; conditions: compound added with low micromolar NMDA, 20-25 h
Method: Cultures were incubated in 5% CO2 at 37° C.
Experiments were conducted at 13-15 days in vitro.

[2] = system: cortical neurons and glia; assay: Chemical hypoxia (azide) and glucose deprivation in cortical cell cultures, medium LDH; type: cell-based, Swiss Webster mice; conditions: 3 mM azide 30 min with compound; LDH 21-25 h later
Method: Primary cultures containing both cortical neurons and glia were prepared from gravid Swiss Webster mice as previously described. (Regan , R. F. and Choi, D. W., The effect of NMDA, AMPA/kainate, and calcium channel antagonists on traumatic cortical neuronal injury in culture, Brain Res, 633: 236-242, 1994). Plating medium consisted of Eagle's minimal essential medium (MEM), 5% equine serum, 5% fetal bovine serum, 2 mM glutamine, and 23 mM glucose. Cultures were incubated in 5% CO2 at 37° C. Two-thirds of the culture medium was exchanged twice weekly with MEM containing 10% equine serum, 2 mM glutamine, and 23 mM glucose. Glial cell division was inhibited at 4-7 days in vitro with 10^−5 M cytosine arabinoside.
Chemical hypoxia was induced with 3 mM azide, which unlike cyanide is not volatile and has little effect on copper-zinc and manganese superoxide dismutases at low millimolar concentrations. (Misra, H. P. and Fridovich, I., Inhibition of superoxide dismutases by azide, Arch Biochem Biophys 189: 317-322, 1978). Experiments were conducted at 13-16 days in vitro in a glucose-free buffer containing 116 mM NaCl, 5.4 mM KCl, 1.8 mM CaCl2, 1 mM NaH2PO4, 26.2 mM NaHCO3, 0.8 mM MgSO4, and amino acids (MEM amino acids, Sigma Chemical Co., St. Louis, Mo., U.S.A.). After incubation for 30-90 min at 37° C. in 5% CO2, cultures were washed into MEM containing 10 mM glucose and were returned to the incubator.
Cell death was estimated 21-25 h after azide exposure by inspection under phase-contrast microscopy, and was quantified by assaying lactate dehydrogenase (LDH) activity in the medium, as previously described. (Regan, R. F. and Panter, S. S., Traumatic neuronal injury in cortical cell culture is attenuated by 21-aminosteroids, Brain Res, 682: 144-150, 1995). Medium LDH in this culture system is an accurate marker of neuronal death that correlates well with cell counts. (Koh, J. Y. and Choi, D. W., Vulnerability of cultured cortical neurons to damage by excitotoxins: Differential susceptibility of neurons containing NADPH-diaphorase, J Neurosci 8: 2153-2163, 1988). […] (Koh, J. Y. and Choi, D. W., 1988). The LDH activity in the medium of sister cultures exposed to sham wash alone was subtracted from all values to obtain the LDH signal associated specifically with neurotoxin exposure.
Data were analyzed by one-way analysis of variance. Differences between groups and a single mean were assessed with the Dunnett multiple comparisons test; when groups were compared to more than one mean, the Tukey-Kramer post hoc test was used.

[3] = system: cortical neurons and glia; conditions: 10-100 μM, 30 min in MEM without azide

SMILES: OCCS [mercaptoethanol]
- effect on NMDA neurotoxicity (neuronal death, medium LDH) [1]: markedly enhanced
- effect on NMDA neurotoxicity (neuronal death, medium LDH) ([1]; listed as Mercaptoethanol): increased NMDA neurotoxicity to a degree comparable to that of glutathione
- effect on azide neurotoxicity in glucose-free buffer (neuronal death) [2]: potentiate; also recorded: concentration-toxicity profile that was similar to GSH
- toxicity of compound alone [3]: nontoxic
